Laboratory results reported in patent publication US20080287398A1, “COLD MENTHOL RECEPTOR-1 ANTAGONISTS” (priority 2007, published 2008).
Values joined by “and” are separate entries in the source; they are usually repeats but may differ in a detail not shown here. Identical values can stand only once. Like-named read-outs stand apart in the source and are kept apart here.

Legend:
canine TRPM8 [1] = target: T1, canine TRPM8 (Canis lupus familiaris, UniProt Q1A7N1); test: TRPM8 patch clamp assay (whole-cell, HEK293 cells); format: cell-based; details: HEK293 cells stably transfected with canine TRPM8, 100 μM menthol, 22° C.
T1 construct: expressed in transfected cells
Procedure: For patch clamp experiments, HEK293 cells stably transfected with canine TRPM8 were cultured in DMEM supplemented with 10% fetal bovine serum, 100 units/ml penicillin, 100 μg/ml streptomycin and 1 mg/ml G418. Cells were maintained at 37° C. and in 5% CO2.
The extracellular solution contained (in mM): NaCl, 132; EGTA, 1; KCl, 5.4; MgCl2, 0.8; HEPES, 10; glucose, 10; pH=7.4. Recordings were performed using the conventional whole-cell patch clamp technique, 1-2 days after plating cells onto glass coverslips at densities appropriate for single cell recording. Currents were amplified by a patch clamp amplifier and filtered at 2 kHz (Axopatch 200B, Molecular Devices, Union City, Calif.). Menthol (100 μM) was applied to the cell at 0.5 ml/min via a gravity-fed perfusion system. Recordings involving menthol activation were performed at 22° C.
In experiments where temperatures were varied, temperature ramps were generated by cooling the perfusate in an in-line cooler (Model SC-20, Warner Instruments, Hamden, Conn.) controlled by a temperature controller (Model CL-100, Warner Instruments). The temperature in the vicinity of the recorded cell was measured with a custom-made miniature thermo-microprobe connected to a monitoring thermometer (Model TH-8, Physitemp, Clifton, N.J.), and sampled using Digidata 1322A and pClamp 9.0 (Molecular Devices), as were the currents concurrently measured in the whole-cell patch clamp mode. The current was continuously sampled (at 100 Hz) at a holding potential of −60 mV.
Compounds were diluted from 10 mM DMSO stocks (stored at −20° C.) into an extracellular solution either containing 100 μM menthol or subjecting to cooling. Increasing concentrations of a compound were applied to a cell in a cumulative manner and concentration-dependent responses were measured after steady-state activation was achieved by either 100 μM menthol or cooling to 10° C. A saturating concentration of a reference antagonist was applied at the end of an experiment (either in the presence of 100 μM menthol or 10° C. temperature) to establish the baseline from which all the other measurements were subtracted.
Percentage inhibition by a compound was calculated as follows: 100×(1−Icomp/I0); where Icomp and I0 are steady-state current amplitudes in either the presence or absence of a concentration of the compound.

Sprague-Dawley rats = test: CFA-induced paw radiant heat hypersensitivity; format: in vivo, rat; details: for inhibition in vivo at 30 mg/kg: read-out: % Reversal
Procedure: Intraplantar injection of Complete Freund's Adjuvant (CFA) in rodents results in a long-lasting inflammatory reaction, characterized by a pronounced hypersensitivity to both thermal and mechanical stimuli. This hypersensitivity peaks between 24-72 hours following injection and can last for several weeks. […] This paradigm also may be conducted with a multiple dosing or a prophylactic dosing regime designed to alter the course of hyperalgesia development. This test predicts the analgesic, anti-allodynic and antihyperalgesic effect of numerous effective clinical agents, including NSAIDS such as acetaminophen, aspirin and ibuprofen, and opioids such as morphine.
Each rat was placed in a test chamber on a warm glass surface and allowed to acclimate for approximately 10 minutes. A radiant thermal stimulus (beam of light) was then focused through the glass onto the plantar surface of each hind paw in turn. The thermal stimulus was automatically shut off by a photoelectric relay when the paw was moved or when the cut-off time was reached (20 seconds for radiant heat at ˜5 Amps). An initial (baseline) response latency to the thermal stimulus was recorded for each animal prior to the injection of CFA. Twenty-four hours following intraplantar CFA injection, the response latency of the animal to the thermal stimulus was then re-evaluated and compared to the animal's baseline response time. […] Immediately following the post-CFA latency assessment, test compound or vehicle (usually Solutol, hydroxypropyl methylcellulose, hydroxypropyl beta-cyclodextrin or PEG-400) was administered i.p. or p.o. to rats. […] The percent reversal (% R) of hypersenstivitiy was calculated according to the following formula:
% Reversal=(Treatment Response-CFA Response)/(Baseline Response-CFA Response)×100.

canine TRPM8 [2] = target: T1, canine TRPM8; test: In vitro canine TRPM8 functional assay (Ca2+-sensitive dye, FLIPR/FDSS, icilin activation); format: cell-based; details: HEK293 cells expressing canine TRPM8, icilin activation; for IC50: eight-point dose-response; for % I (0.5 μM): 0.5 μM compound
Summary of the method: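 Icilin challenge (final concentration producing ~80% of maximal response) followed a 5 min compound exposure in canine TRPM8-HEK293 cells dye-loaded with Calcium 3. Intracellular Ca2+ was read on FLIPR/FDSS. EC50 and IC50 values came from nonlinear sigmoidal dose-response fits of basal-subtracted, percent-of-maximum data averaged over quadruplicates.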

Male Sprague Dawley rats = test: Inhibition of icilin-induced wet-dog shakes in rats; format: in vivo; details: rat; 30 mg/kg i.p.; 15′ pre icilin; wet-dog shakes vs vehicle
[3] = HEK293, read-out: % I (0.5 μM), 0.5 μM compound
[4] = HEK293, read-out: % I (1 μM), 1 μM compound
[5] = HEK293, 1 μM compound, read-out: % I (1 μM)

T1 sequence (Q1A7N1 1-1104): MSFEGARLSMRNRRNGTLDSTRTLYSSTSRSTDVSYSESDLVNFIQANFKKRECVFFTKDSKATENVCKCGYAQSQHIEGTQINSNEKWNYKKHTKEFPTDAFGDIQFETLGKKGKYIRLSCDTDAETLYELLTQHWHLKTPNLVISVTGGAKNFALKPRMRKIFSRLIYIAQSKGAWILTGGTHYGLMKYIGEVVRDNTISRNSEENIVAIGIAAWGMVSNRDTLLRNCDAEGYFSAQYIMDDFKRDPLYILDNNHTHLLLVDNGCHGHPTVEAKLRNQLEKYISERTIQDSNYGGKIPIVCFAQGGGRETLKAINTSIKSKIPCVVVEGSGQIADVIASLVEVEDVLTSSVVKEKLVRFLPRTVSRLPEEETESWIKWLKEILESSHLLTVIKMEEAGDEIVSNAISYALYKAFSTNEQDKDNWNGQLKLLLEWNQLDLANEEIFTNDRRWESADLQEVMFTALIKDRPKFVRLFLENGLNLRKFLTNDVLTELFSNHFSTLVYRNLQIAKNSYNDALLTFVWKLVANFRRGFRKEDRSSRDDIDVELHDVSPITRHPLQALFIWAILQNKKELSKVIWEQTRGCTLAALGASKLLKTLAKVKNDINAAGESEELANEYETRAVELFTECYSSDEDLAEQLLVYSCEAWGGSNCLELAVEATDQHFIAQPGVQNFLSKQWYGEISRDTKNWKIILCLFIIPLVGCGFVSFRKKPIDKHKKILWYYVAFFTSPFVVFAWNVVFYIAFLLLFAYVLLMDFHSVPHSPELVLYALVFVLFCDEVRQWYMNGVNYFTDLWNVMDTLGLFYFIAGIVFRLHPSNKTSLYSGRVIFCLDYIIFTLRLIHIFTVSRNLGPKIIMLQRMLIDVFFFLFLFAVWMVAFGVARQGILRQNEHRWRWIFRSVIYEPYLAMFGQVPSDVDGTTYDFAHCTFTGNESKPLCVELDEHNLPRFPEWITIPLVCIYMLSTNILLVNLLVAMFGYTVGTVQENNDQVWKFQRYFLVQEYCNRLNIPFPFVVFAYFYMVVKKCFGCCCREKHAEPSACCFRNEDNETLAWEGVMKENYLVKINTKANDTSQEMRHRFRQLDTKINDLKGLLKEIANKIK

| inhibition at 1 µM (canine TRPM8 [2]; [5]) | Structure (SMILES) | inhibition in vivo at 30 mg/kg (Sprague-Dawley rats; Rattus norvegicus, po, 1 h) | inhibition at 0.5 µM (canine TRPM8 [2]; [3]) | IC50 (canine TRPM8 [2]; IC50 (μM)) | IC50 (canine TRPM8 [2]; read-out: IC50) | further results |
| --- | --- | --- | --- | --- | --- | --- |
|  | CCOP(=O)(OCC)C(Cc1ccc(OC(F)(F)F)cc1)c1sc2ccccc2c1Br (stereo not drawn) [Cpd 155, [1-(3-Bromo-benzo[b]thiophen-2-yl)-2-(4-trifluoromethoxy-phenyl)-ethyl]-phosphonic acid diethyl ester] | 138% | 104% | 0.046 µM and 0.12 µM and 0.09 µM |  | IC50 (canine TRPM8 [1]): 12.5 nM |
|  | CC(C)OP(=O)(OC(C)C)C(Cc1ccc(F)c(F)c1)c1sc2ccccc2c1Cl (stereo not drawn) [Cpd 12, [1-(3-Chloro-benzo[b]thiophen-2-yl)-2-(3,4-difluoro-phenyl)-ethyl]-phosphonic acid diisopropyl ester] |  |  | 0.043 µM and 0.13 µM |  | inhibition in vivo at 30 mg/kg (Sprague-Dawley rats; Rattus norvegicus, ip, 1 h): 105%; inhibition at 1 µM (canine TRPM8 [2]; [4]): 100% |
| 100% | Cc1c(C(Cc2ccc(F)c(F)c2)P(=O)(OC(C)C)OC(C)C)sc2ncccc12 (stereo not drawn) [Cpd 34, [2-(3,4-Difluoro-phenyl)-1-(3-methyl-thieno[2,3-b]pyridin-2-yl)-ethyl]-phosphonic acid diisopropyl ester] |  |  |  | 0.12 µM and 0.15 µM and 0.2 µM | % Inhibition (Male Sprague Dawley rats): 28.8% |
|  | CCOP(=O)(OCC)C(Cc1cccc(Cl)c1)c1sc2ccccc2c1Br (stereo not drawn) [Cpd 137, [1-(3-Bromo-benzo[b]thiophene-2-yl)2-(3-chloro-phenyl)-ethyl]-phosphonic acid diethyl ester] | 34% | 102% | 0.024 µM |  |  |
|  | CCOP(=O)(OCC)C(Cc1ccc(F)c(F)c1)c1sc2ccccc2c1Br (stereo not drawn) [Cpd 127, [1-(3-Bromo-benzo[b]thiophen-2-yl)-2-(3,4-difluoro-phenyl)-ethyl]-phosphonic acid dethyl ester] | 88% |  | 0.052 µM |  | ED50 (Sprague-Dawley rats; Rattus norvegicus, po): 5.2 mg/kg; ED50 (Sprague-Dawley rats; Rattus norvegicus, po, 1 h, read-out: oral ED50): 5.2 mg/kg; inhibition at 1 µM (canine TRPM8 [2]; [4]): 100% |
|  | CCOP(=O)(OCC)C(Cc1ccc(F)c(C(F)(F)F)c1)c1sc2ccccc2c1Cl (racemic) [Cpd 298] |  |  |  | 0.085 µM | % Reversal (Sprague-Dawley rats; rat, 30 mg/kg p.o., time 1 h): 20%; % I (0.5 μM) (canine TRPM8 [2]): 99% |
|  | CC(C)OP(=O)(OC(C)C)C(Cc1ccc(Cl)c(F)c1)c1sc2ccccc2c1Br (stereo not drawn) [Cpd 190] |  |  |  | 0.102 µM | % Reversal (Sprague-Dawley rats; rat, 30 mg/kg p.o., time 1 h): 45%; % I (0.5 μM) (canine TRPM8 [2]): 104% |
|  | CCOP(=O)(OCC)C(Cc1ccc(F)cc1)c1sc2ccccc2c1Br (stereo not drawn) [Cpd 238, [1-(3-Bromo-benzo[b]thiophen-2-yl)-2-(4-fluoro-phenyl)-ethyl]-phosphonic acid diethyl ester] |  | 104% | 0.044 µM |  | IC50 (canine TRPM8 [1]): 0.53 nM; inhibition in vivo at 30 mg/kg (Sprague-Dawley rats; Rattus norvegicus, po, 2 h): 56% |
| 100% | CCCP(=O)(CCC)C(OCc1ccc(F)c(F)c1)c1sc2ccccc2c1C (stereo not drawn) [Cpd 42] |  |  |  | 0.15 µM and 0.14 µM | % Inhibition (Male Sprague Dawley rats): 70.6% |

| Structure (SMILES) | inhibition at 1 µM (canine TRPM8 [2]; [5]) | inhibition in vivo at 30 mg/kg (Sprague-Dawley rats; Rattus norvegicus, po, 1 h) | inhibition at 0.5 µM (canine TRPM8 [2]; [3]) | IC50 (canine TRPM8 [2]; IC50 (μM)) | IC50 (canine TRPM8 [2]; read-out: IC50) | further results |
| --- | --- | --- | --- | --- | --- | --- |
| CC(C)OP(=O)(OC(C)C)C(Cc1ccc(F)c(C(F)(F)F)c1)c1sc2ccccc2c1Br (stereo not drawn) [Cpd 241, [1-(3-Bromo-benzo[b]thiophen-2-yl)-2-(4-fluoro-3-trifluoromethyl-phenyl)-ethyl]-phosphonic acid diisopropyl ester] | 103% |  |  |  | 0.038 µM | IC50 (canine TRPM8 [1]; IC50, mode of activation Menthol (100 μM)): 1.6 nM; inhibition in vivo at 30 mg/kg (Sprague-Dawley rats; po, rat, 30 mg/kg p.o., time 1 h): 72%; inhibition at 0.5 µM (canine TRPM8 [2]; HEK293, 0.5 μM compound, read-out: % I (0.5 μM)): 102% |
